This assay deals with T1, full length SGK1 (Homo sapiens, UniProt O00141).
T1 construct: 125 μM full length SGK1 (Life Technologies Part #PR7358A); purchased Life Technologies PR7358A
T1 sequence (O00141 1-431): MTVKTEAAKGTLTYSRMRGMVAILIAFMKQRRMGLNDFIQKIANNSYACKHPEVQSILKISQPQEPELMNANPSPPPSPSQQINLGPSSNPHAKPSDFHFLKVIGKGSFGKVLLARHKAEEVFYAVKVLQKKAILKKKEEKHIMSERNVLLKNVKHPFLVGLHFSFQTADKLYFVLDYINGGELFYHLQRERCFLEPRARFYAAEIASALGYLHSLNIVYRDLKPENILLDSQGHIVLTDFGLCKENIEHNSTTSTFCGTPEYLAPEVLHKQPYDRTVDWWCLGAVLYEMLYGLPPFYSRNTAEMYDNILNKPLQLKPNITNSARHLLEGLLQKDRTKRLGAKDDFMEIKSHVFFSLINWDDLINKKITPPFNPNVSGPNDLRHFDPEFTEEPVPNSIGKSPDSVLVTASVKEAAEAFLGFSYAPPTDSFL
Description: SGK1 inhibition Assay A (Caliper LabChip electrophoretic separation of fluorescent peptide substrate and phosphorylated product). It counts as biochemical. As to conditions: Assay A; 20 μM ATP, 40 min incubation; read-out: SGK1 IC50.

Counter-ions that a name gives are not always drawn.

As to `COCCNC(=O)c1ccc(-c2cc(N3CCC[C@@H](NC(=O)c4ccc(Cl)s4)C3)c3c(N)ncnn23)cc1` [Example 224, (R)-N-(1-(4-amino-7-(4-((2-methoxyethyl)carbamoyl)phenyl)pyrrolo[2,1-f][1,2,4]triazin-5-yl)piperidin-3-yl)-5-chlorothiophene-2-carboxamide], the IC50 – broadly, the concentration needed to halve the response being measured – worked out at 11 nM.
As to `Nc1ncnn2c(-c3ccc(OC(F)F)cc3)cc(N3CCC[C@@H](NC(=O)c4ccc(Cl)s4)C3)c12` [Example 225, (R)-N-(1-(4-amino-7-(4-(difluoromethoxy)phenyl)pyrrolo [2,1-f][1,2,4]triazin-5-yl)piperidin-3-yl)-5-chlorothiophene-2-carboxamide, TFA], the IC50 is 15 nM.
Turning to `CS(=O)(=O)c1ccc(-c2cc(N3CCC[C@@H](NC(=O)c4ccc(Cl)s4)C3)c3c(N)ncnn23)cn1` [Example 226, N-[(3R)-1-[4-amino-7-(6-methanesulfonylpyridin-3-yl)pyrrolo[2,1-f][1,2,4]triazin-5-yl]piperidin-3-yl]-5-chlorothiophene-2-carboxamide], the 50% inhibitory concentration (IC50) amounted to 2 nM.
Turning to `COc1c(-c2cc(N3CCC[C@@H](NC(=O)c4ccc(Cl)s4)C3)c3c(N)ncnn23)ccnc1F` [Example 227], the IC50 was 18 nM.
Consider `Nc1ncnn2c(-c3ccc(S(=O)(=O)C4CC4)cc3)cc(N3CCC[C@@H](NC(=O)c4ccc(Cl)s4)C3)c12` [Example 228, N-[(3R)-1-{4-amino-7-[4-(cyclopropanesulfonyl)phenyl]pyrrolo[2,1-f][1,2,4]triazin-5-yl}piperidin-3-yl]-5-chlorothiophene-2-carboxamide, TFA], for which the IC50 was found to be 6 nM.
Turning to `Nc1ncnn2c(-c3cccc(OC(F)F)c3)cc(N3CCC[C@@H](NC(=O)c4ccc(Cl)s4)C3)c12` [Example 229], the concentration for half-maximal inhibition (IC50) was found to be 46 nM.
For the compound `Nc1ncnn2c(-c3ccco3)cc(N3CCC[C@@H](NC(=O)c4ccc(Cl)s4)C3)c12` [Example 230], the concentration for half-maximal inhibition (IC50) came to 21 nM.
For the compound `Nc1ncnn2c(-c3cc(F)nc(F)c3)cc(N3CCC[C@@H](NC(=O)c4ccc(Cl)s4)C3)c12` [Example 231], the IC50 is 12 nM.
As for `COc1cc(-c2cc(N3CCC[C@@H](NC(=O)c4ccc(Cl)s4)C3)c3c(N)ncnn23)cc(C(F)(F)F)n1` [Example 232, N-[(3R)-1-{4-amino-7-[2-methoxy-6-(trifluoromethyl)pyridin-4-yl]pyrrolo[2,1-f][1,2,4]triazin-5-yl}piperidin-3-yl]-5-chlorothiophene-2-carboxamide], the IC50 came out at 161 nM.
To `Cc1cnc(F)cc1-c1cc(N2CCC[C@@H](NC(=O)c3ccc(Cl)s3)C2)c2c(N)ncnn12` [Example 233] belongs 33 nM; to `Nc1ncnn2c(-c3cccc(Cl)c3)cc(N3CCC[C@@H](NC(=O)c4ccc(Cl)s4)C3)c12` [Example 234], 64 nM.
For `Nc1ncnn2c(-c3ccc(Cl)cc3)cc(N3CCC[C@@H](NC(=O)c4ccc(Cl)s4)C3)c12` [Example 235], the IC50 stood at 37 nM.
Regarding `Nc1ncnn2c(-c3ccc(Cl)nc3)cc(N3CCC[C@@H](NC(=O)c4ccc(Cl)s4)C3)c12` [Example 236], the IC50 worked out at 19 nM.
For the compound `COC(=O)c1ccc(-c2cc(N3CCC[C@@H](NC(=O)c4ccc(Cl)s4)C3)c3c(N)ncnn23)n1C` [Example 238, methyl 5-{4-amino-5-[(3R)-3-(5-chlorothiophene-2-amido)piperidin-1-yl]pyrrolo[2,1-f] [1,2,4]triazin-7-yl}-1-methyl-1H-pyrrole-2-carboxylate], the IC50 was 91 nM.
Consider `Nc1ncnn2c(C3=CCC(F)(F)CC3)cc(N3CCC[C@@H](NC(=O)c4ccc(Cl)s4)C3)c12` [Example 239], for which the IC50 stood at 43 nM.
With `CC(O)c1cccc(-c2cc(N3CCC[C@@H](NC(=O)c4ccc(Cl)s4)C3)c3c(N)ncnn23)c1` (stereo partly drawn) [Example 240, N-[(3R)-1-{4-amino-7-[3-(1-hydroxyethyl)phenyl]pyrrolo[2,1-f][1,2,4]triazin-5-yl}piperidin-3-yl]-5-chlorothiophene-2-carboxamide], the IC50 is 14 nM.
Next, `N#Cc1ccc(-c2cc(N3CCC[C@@H](NC(=O)c4ccc(Cl)s4)C3)c3c(N)ncnn23)cn1` [Example 241]: 0.3 nM; `CNC(=O)c1ccc(-c2cc(N3CCC[C@@H](NC(=O)c4ccc(Cl)s4)C3)c3c(N)ncnn23)cn1` [Example 242, (R)-5-(4-amino-5-(3-(5-chlorothiophene-2-carboxamido)piperidin-1-yl)pyrrolo[2,1-f][1,2,4]triazin-7-yl)-N-methylpicolinamide]: 5 nM.
For the compound `N#Cc1ccc(-c2cc(N3CCC[C@@H](NC(=O)c4ccc(Cl)s4)C3)c3c(N)ncnn23)cc1F` [Example 243, (R)-N-(1-(4-amino-7-(4-cyano-3-fluorophenyl)pyrrolo[2,1-f][1,2,4]triazin-5-yl)piperidin-3-yl)-5-chlorothiophene-2-carboxamide, TFA], the IC50 worked out at 1 nM.
With `Nc1ncnn2c(-c3ccc4nnnn4c3)cc(N3CCC[C@@H](NC(=O)c4ccc(Cl)s4)C3)c12` [Example 244, (R)-N-(1-(4-amino-7-(tetrazolo[1,5-a]pyridin-6-yl)pyrrolo[2,1-f][1,2,4]triazin-5-yl)piperidin-3-yl)-5-chlorothiophene-2-carboxamide], the 50% inhibitory concentration (IC50) stood at 1 nM.
With `Nc1ncnn2c(-c3ccc(-n4cnnn4)c(F)c3)cc(N3CCC[C@@H](NC(=O)c4ccc(Cl)s4)C3)c12` [Example 245, (R)-N-(1-(4-amino-7-(3-fluoro-4-(1H-tetrazol-1-yl)phenyl)pyrrolo[2,1-f][1,2,4]triazin-5-yl)piperidin-3-yl)-5-chlorothiophene-2-carboxamide], the half-inhibitory concentration (IC50) was determined as 1 nM.
`Nc1ncnn2c(-c3cnc4ncnn4c3)cc(N3CCC[C@@H](NC(=O)c4ccc(Cl)s4)C3)c12` [Example 246]: the half-inhibitory concentration (IC50) is 13 nM.
Regarding `Nc1ncnn2c(-c3ccc4ncnn4c3)cc(N3CCC[C@@H](NC(=O)c4ccc(Cl)s4)C3)c12` [Example 247], the IC50 turned out to be 12 nM.
Next, `Nc1ncnn2c(-c3ccc(C(F)F)nc3)cc(N3CCC[C@@H](NC(=O)c4ccc(Cl)s4)C3)c12` [Example 248, (R)-N-(1-(4-amino-7-(6-(difluoromethyl)pyridin-3-yl)pyrrolo[2,1-f][1,2,4]triazin-5-yl)piperidin-3-yl)-5-chlorothiophene-2-carboxamide, TFA]: 3 nM.
As to `Nc1ncnn2c(-c3ccc(-n4cnnn4)cc3)cc(N3CCC[C@@H](NC(=O)c4ccc(Cl)s4)C3)c12` [Example 249, (R)-N-(1-(7-(4-(1H-tetrazol-1-yl)phenyl)-4-aminopyrrolo[2,1-f][1,2,4]triazin-5-yl)piperidin-3-yl)-5-chlorothiophene-2-carboxamide, TFA], the IC50 stood at 1 nM.
For `N#Cc1ncn(-c2ccc(-c3cc(N4CCC[C@@H](NC(=O)c5ccc(Cl)s5)C4)c4c(N)ncnn34)cn2)n1` [Example 250, (R)-N-(1-(4-amino-7-(6-(3-cyano-1H-1,2,4-triazol-1-yl)pyridin-3-yl)pyrrolo[2,1-f][1,2,4]triazin-5-yl)piperidin-3-yl)-5-chlorothiophone-2-carboxamide, TFA], the IC50 was found to be 3 nM.
Next, `Nc1ncnn2c(-c3ccc(-n4cncn4)nc3)cc(N3CCC[C@@H](NC(=O)c4ccc(Cl)s4)C3)c12` [Example 251, (R)-N-(1-(7-(6-(1H-1,2,4-triazol-1-yl)pyridin-3-yl)-4-aminopyrrolo[2,1-f][1,2,4]triazin-5-yl)piperidin-3-yl)-5-chlorothiophene-2-carboxamide, TFA]: 1 nM.

Source of the values: patent US20260250290A1 (BRISTOL-MYERS SQUIBB COMPANY, priority 2023, published 2026).
